From patent US9562024B2, “Vortioxetine salt and crystal thereof, their preparation method, pharmaceutical compositions and usage” (HANGZHOU PUSHAI PHARMACEUTICAL TECHNOLOGY CO., LTD, priority 2013, dated 2017)
Counter-ions that a name gives are not always drawn.

Tests used:
Type in all cases: physicochemical
[1] = Inventors' studies of the known crystalline forms of vortioxetine hydrobromide of WO2007/144005A1
Excerpt: In studies, the inventors of the present invention found out that the multiple crystalline forms of vortioxetine hydrobromide disclosed in WO2007/144005A1 have the following disadvantages: […]

[2] = Dissolution comparison of sustained-release tablets, Example 144; settings: water, 37° C.
Procedure: The crystalline form of vortioxetine hemihydrobromide of the present invention and the β Form of vortioxetine hydrobromide prepared in preparation example 2 were tableted by the method of example 141 and then subjected to dissolution comparison. Water was used as the dissolution medium. Parameter setting of the dissolution tester: The temperature was 37° C. The rotate speed of the stirring paddle was 50 r/min. Take 3 ml of the dissolution medium out at 0.5, 1, 2, 6 and 12 hours respectively. Each time after sampling, 3 mL of water was added back to the dissolution medium to supplement the volume. The concentration of the dissolution medium at each time point was determined by HPLC.

[3] = Hygroscopicity comparison (DVS isothermal sorption); settings: relative humidity range 20%-80%
Procedure: Dynamic vapor sorption (DVS) data were collected using TA Instruments Q5000 TGA. The instrument control software was Thermal Advantage, and the analytical software was Universal Analysis. Usually, 1-10 mg of the sample was placed in a platinum pan and the weight change of the sample during experiments was recorded. The relative humidity was usually programmed to change from 20% to 80% and then back to 20%, and an isothermal sorption curve could be generated. Depending on specific situations, different sorption and desorption procedures might be used.
Hygroscopicity comparison: DVS isothermal sorption curves were used, and weight changes within the 20%-80% RH range were measured.

[4] = Stability competition test (competitive slurry, XRPD); settings: for Stability Competition Test: crystalline form after competitive slurry (XRPD): equal quantities of both forms slurried 7 days in ethanol or water; for Stability competition test: crystalline form after slurry: slurried in water or ethanol
Procedure: Stability competition test: An equal quantity (250 mg) of the crystalline vortioxetine hemihydrobromide form of the present invention prepared in example 4 and the β Form of vortioxetine hydrobromide prepared in preparation example 2 were respectively added to 3 mL of ethanol or water to produce suspensions. No solvate was formed in ethanol or water. The suspensions were slurried for 7 days at room temperature or at 60° C., and then XRPD characterization analyses were performed.

[5] = Dissolution of tablets (paddle method, water), Example 140; settings: 37° C.
Procedure: The crystalline form of vortioxetine hemihydrobromide of the present invention, the β Form of vortioxetine hydrobromide prepared in preparation example 2 and the β Form of vortioxetine hydrobromide containing 20% of the crystalline form of vortioxetine hemihydrobromide of the present invention were tableted by the method in example 105 and then subjected to phase stability comparison. Dissolution was determined by reference to the dissolution conditions of Benorilate Tablets described in 2010 Chinese Pharmacopoeia. The paddle method was used with the paddle rotation speed at 50 r/min. 900 mL of water was the dissolution medium. The temperature was 37° C. Take 3 mL of the dissolution medium for sampling at 2, 10, 20, 40 and 60 min respectively. Each time after sampling, 3 mL of water was added back to dissolution medium to supplement the volume. The concentration of the dissolution medium at each time point was measured by HPLC, and the dissolution profile was plotted.

[6] = high-temperature conditions, hydrobromide

In the case of `Cc1ccc(Sc2ccccc2N2CCNCC2)c(C)c1` [ethyl acetate solvate of vortioxetine hydrobromide], the “Stability of the crystalline form” value ([1]; high-humidity conditions) is reported as “transformed to hydrate” and the “Stability of the crystalline form” value [1, 6] is reported as “lost ethyl acetate”.
With `Cc1ccc(Sc2ccccc2N2CCNCC2)c(C)c1` [hydrate of vortioxetine hydrobromide, vortioxetine hydrobromide] the “Stability of the crystalline form” value [1, 6] was “lost water”.
With `Cc1ccc(Sc2ccccc2N2CCNCC2)c(C)c1` [the β Form of vortioxetine hydrobromide, 1-[2-(2,4-dimethylphenylsulfanyl)phenyl]piperazine hydrobromide] the Cumulative dissolution ([2]; sustained-release tablets by method of example 141, paddle 50 r/min, 0.5 hours, hydrobromide) was 50.0%, the Cumulative dissolution ([2]; sustained-release tablets, 12 hours, hydrobromide) was 100.0% and the “Hygroscopicity Comparison (weight change)” value ([3]; listed as the known β Form of vortioxetine hydrobromide, hydrobromide) was 0.60%. For the same compound, the “Stability Competition Test: crystalline form after competitive slurry (XRPD)” value (“Stability Competition Test … (XRPD)” for short) ([4]; 60° C., listed as the known β Form of vortioxetine hydrobromide, hydrobromide) was “completely transformed into the vortioxetine hemihydrobromide crystalline form of the present invention”, the “Stability Competition Test … (XRPD)” value ([4]; room temperature, listed as the known β Form of vortioxetine hydrobromide, hydrobromide) was “completely transformed into the vortioxetine hemihydrobromide crystalline form of the present invention” and the “Stability competition test: crystalline form after slurry” value ([4]; temperature not stated at the place, hydrobromide) was “transformed to the vortioxetine hemihydrobromide crystalline form of the present invention”. For the same compound, the “Stability competition test: crystalline form after slurry” value ([4]; temperature not stated at the place, listed as β Form of vortioxetine hydrobromide, hydrobromide) was “failed to maintain its original crystalline form” and the “Stability competition test: crystalline form after slurry” value ([4]; temperature not stated, listed as the known β Form of vortioxetine hydrobromide, hydrobromide) was “completely transformed to the crystalline vortioxetine hemihydrobromide of the present invention”.
For `Cc1ccc(Sc2ccccc2N2CCNCC2)c(C)c1` [vortioxetine hemihydrobromide], the Cumulative dissolution ([5]; tablets by method of example 105, 900 mL water, paddle 50 r/min, 2 min, hemihydrobromide) was 8.2%, the Cumulative dissolution ([5]; tablets, water, 60 min) was 100.0% and the Cumulative dissolution ([2]; sustained-release tablets by method of example 141, paddle 50 r/min, 0.5 hours, hemihydrobromide) was 8.1%. For the same compound, the “Hygroscopicity Comparison (weight change)” value ([3]; listed as Example 4, hemihydrobromide) was 0.28%, the “Hygroscopicity Comparison (weight change)” value ([3]; listed as the vortioxetine hemihydrobromide crystalline form of the present invention, hemihydrobromide) was 0.28% and the “Stability Competition Test … (XRPD)” value ([4]; 60° C., listed as the vortioxetine hemihydrobromide crystalline form of the present invention, hemihydrobromide) was “kept unchanged”. For the same compound, the “Stability Competition Test … (XRPD)” value ([4]; room temperature, listed as the vortioxetine hemihydrobromide crystalline form of the present invention, hemihydrobromide) was “invention kept unchanged”” and the “Stability competition test: crystalline form after slurry” value ([4]; temperature not stated, hemihydrobromide) was “keeping its crystalline form unchanged”.
For `Cc1ccc(Sc2ccccc2N2CCNCC2)c(C)c1` [α Form of vortioxetine hydrobromide, vortioxetine hydrobromide], the “Stability of the crystalline form” value ([1]; room temperature) was “transformed to the β Form of vortioxetine hydrobromide”.
